Experimental data taken from patent EP4772500A1, “NOVEL ISOXAZOLE COMPOUND AS TM4SF5-SPECIFIC INHIBITOR AND USE THEREOF” (Seoul National University R&DB Foundation, priority 2023, dated 2025).

Assays:
[1] = system: C57BL/6 mice on Methionine-Choline Deficient (MCD) diet; experiment: MCD diet non-alcoholic steatohepatitis (NASH) mouse model; type: in vivo
From the text: Wildtype (WT), Alb-TG^Tm4sf5-Flag, and Tm4sf5^-/- (Tm4sf5 gene-deficient) KO C57BL/6N mice were raised in a pathogen-free room animal facility where temperature and humidity were well controlled. For the experiment to establish the steatohepatitis NASH disease model, 22-week-old mice were used. For the induction of hepatic steatohepatitis through an MCD (TD.90262, Teklad) diet, 6-week-old male mice were randomly divided into normal chow diet (NCD, Purina, Cat # 38057) and MCD groups and allowed free access to the diet for 4 weeks (7 mice per group). When treating with drugs, intraperitoneal injection was performed at a concentration of 5 mg/kg twice a week. After the end of the experiment, liver tissues were obtained and analyzed through methods of H&E, immunohistochemistry tissue staining, Western blot, and qRT-PCR.
Normal 22-week-old C57BL/6 mice were randomly divided into a normal chow diet (NCD) group and a Methionine-Choline Deficient (MCD) diet group, which is a non-alcoholic steatohepatitis (NASH) induction diet, with 3 to 6 mice per group, and were allowed free access to the diets for 4 weeks. Simultaneously, vehicle (DMSO) or ST-2-001 at a concentration of 5 mg/kg was treated twice a week per animal via intraperitoneal injection (IP). After 4 weeks, liver tissues were obtained, and Masson's Trichrome staining showing the accumulation of collagen I (degree of fibrosis) and immunohistochemistry using antibodies against the given factors were performed. Representative images were obtained by randomly scanning the stained liver tissue sections using a digital slide scanner (MoticEasyScan, Motic, British Columbia, Canada). Additionally, tissue extracts were obtained from a portion of the liver tissues to perform Western blotting or qRT-PCR for the given factors, thereby confirming the mRNA and protein expression levels and phosphorylation degrees of signaling factors related to the induction of NASH-fibrosis symptoms and the regulation of T or NK cell activity. Meanwhile, in addition to the animal models, it was intended to confirm whether the expressions of TM4SF5, laminin γ2, and AFP correlate with each other at the hepatocyte level and are regulated by the TM4SF5-specific inhibitor isoxazole compound.

[2] = system: SNU449-TM4SF5 and Huh7-Con; experiment: qRT-PCR/Western blotting of laminin γ2, AFP and liver cancer markers in TM4SF5-expressing hepatocytes; type: cell-based, human; settings: 2.5 µM, 24 hours (FIG. 8h-i)
[3] = MCD diet, liver tissue extracts (FIG. 8c)

Row | SMILES | NASH-fibrosis symptoms ([1]; MCD diet, 5 mg/kg IP twice a week, 4 weeks, tissue staining (FIG. 8a)) | CPT1 (carnitine palmitoyltransferase 1) [1, 3] | expressions and levels of fibrosis-related factors, factors related to lipogenesis and steatosis, and cytokines/chemokines related to inflammation [1, 3] | α-Sma, Afp, and Pd-ll expression ([1]; MCD diet, liver tissue extracts, Western blotting (FIG. 8b)) | mRNA levels for lipogenesis (Acc, Dgat2, Fasn) and activation of Kupffer cells (Trem2, Tim4, Clec4j) ([1]; MCD diet, liver tissues, qRT-PCR (FIG. 8d)) | effect on the liver tissue or the expression of the stained factors ([1]; NCD (normal chow diet), 5 mg/kg IP twice a week (FIG. 8a)) | expression of α-Sma, Afp, Pd-l1 ([1]; NCD, liver tissue extracts, Western blotting (FIG. 8b)) | elevated expressions of laminin γ2, AFP, phosphorylation of STAT3, FUCA and CD34 [2]
1 | COc1ccc(-c2cc(-c3ccc(NC(C)=O)cc3)no2)cc1 [ST-2-001, N-(4-(5-(4-methoxyphenyl)isoxazole-3-yl)phenyl)acetamide] | clearly inhibited | rather increased | suppressed | decreased | inhibited | had no effect | slightly decreased | 
2 | Cc1ccc(C(=O)Nc2ccc(-c3cc(-c4ccc(O)cc4)no3)cc2)cc1 [ST-5-002, N-(4-(3-(4-hydroxyphenyl)isoxazole-5-yl)phenyl)-4-methylbenzamide] |  |  |  |  |  |  |  | inhibited
